Source: patent US9481654B2, “Compositions and methods for inhibition of the JAK pathway” (Rigel Pharmaceuticals, Inc., priority 2006, dated 2016)

Tests used:
[1] = test system: primary human T-cells (IL-2 induced proliferation, JAK-1/JAK-3, Stat-5); experiment: Primary Human T-Cell Proliferation Assay Stimulated with IL-2 (CellTiter-Glo); type: cell-based; details: Table III Example 4
Procedure, shortened: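 Pre-activated peripheral-blood T-cells (TCR/CD28 stimulated, IL-2-maintained) were IL-2-depleted, then plated in Yssel's medium with 80 U/mL IL-2 in the cell suspension and compound in duplicate. Proliferation ran 72 h at 37 °C; viable cells quantified by CellTiter-Glo ATP luminescence, with IL-2-omitted wells as unstimulated control.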

[2] = test system: IFNγ induced ICAM-1 (CD54) up-regulation in U937 human monocytic cells (JAK/Stat pathway); experiment: U937 IFNγ ICAM1 FACS Assay; type: cell-based; details: Table III Example 6, 10 ng/mL IFNγ, 18-24 hours
Procedure, shortened: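 U937 cells (100,000 per well) were pre-incubated 30 min at 37 °C with serially 3-fold diluted compound, then stimulated with IFNγ for 18–24 h. Surface ICAM-1 was measured by flow cytometry as the geometric mean of ICAM-APC on gated live cells. EC50 values were calculated from dose curves, with % live cells also recorded.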

SMILES | IC50 [1] | IC50 [2] | IC50 ([1]; Homo sapiens, T-cell) | IC50 ([2]; Homo sapiens, U-937)
NS(=O)(=O)c1ccc(Nc2ncc(Cl)c(Nc3ccc(CNS(=O)(=O)C4CC4)cc3)n2)cc1 [Compound I-115, N2-(4-aminosulfonyl)phenyl-5-chloro-N4-(4-cyclopropylsulfonylaminomethyl)phenyl-2,4-pyrimidinediamine] | 19.2 nM | 105 nM | – | –
CCC(=O)N(Cc1cccc(Nc2nc(Nc3cccc(S(N)(=O)=O)c3)ncc2C)c1)S(=O)(=O)C1CC1 [Compound I-116, N2-(3-aminosulfonyl)phenyl-N4-[3-(N-cyclopropylsulfonyl-N-propionyl)aminomethyl]phenyl-5-methyl-2,4-pyrimidinediamine] | 29.9 nM | 178 nM | – | –
C#CCNS(=O)(=O)c1cc(Nc2ncc(C)c(Nc3ccc(CNS(=O)(=O)C4CC4)cc3)n2)ccc1C [Compound I-188, N4-(4-cyclopropylsulfonylaminomethyl)phenyl-5-methyl-N2-(4-methyl-3-propargylaminosulfonyl)phenyl-2,4-pyrimidinediamine] | 573 nM | 193 nM | – | –
Cc1cnc(Nc2cccc(S(N)(=O)=O)c2)nc1Nc1cccc(CNS(=O)(=O)C2CC2)c1 [Compound I-51, N2-(3-aminosulfonyl)phenyl-N4-(3-cyclopropylsulfonylaminomethyl)phenyl-5-methyl-2,4-pyrimidinediamine] | 29.7 nM | 324 nM | – | –
COCCCNS(=O)(=O)c1cccc(Nc2ncc(C)c(Nc3ccc(CNS(=O)(=O)C4CC4)cc3)n2)c1 [Compound I-182, N4-(4-cyclopropylsulfonylaminomethyl)phenyl-N2-[3-(3-methoxypropyl)aminosulfonyl]phenyl-5-methyl-2,4-pyrimidinediamine] | 55.1 nM | 103 nM | – | –
COCCCNS(=O)(=O)c1ccc(Nc2ncc(C)c(Nc3ccc(CNS(=O)(=O)C4CC4)cc3)n2)cc1 [Compound I-181, N4-(4-cyclopropylsulfonylaminomethyl)phenyl-N2-[4-(3-methoxypropyl)aminosulfonyl]phenyl-5-methyl-2,4-pyrimidinediamine] | 121 nM | 243 nM | – | –
COCCNS(=O)(=O)c1cccc(Nc2ncc(C)c(Nc3ccc(CNS(=O)(=O)C4CC4)cc3)n2)c1 [Compound I-184, N4-(4-cyclopropylsulfonylaminomethyl)phenyl-N2-[3-(2-methoxyethyl)aminosulfonyl]phenyl-5-methyl-2,4-pyrimidinediamine] | 51.7 nM | 97.8 nM | – | –
Cc1ccc(Nc2ncc(C)c(Nc3ccc4c(c3)CCN(S(=O)(=O)C3CC3)C4)n2)cc1S(N)(=O)=O [II-3, N2-(3-aminosulfonyl-4-methyl)phenyl-N4-[(N-cyclopropylsulfonyl)-1,2,3,4-tetrahydroisoquinolin-6-yl]-5-methyl-2,4-pyrimidinediamine] | 47.5 nM | 87.9 nM | – | –
C#CCNS(=O)(=O)Cc1ccc(Nc2nc(Nc3ccc(C)c(S(N)(=O)=O)c3)ncc2F)cc1 [Compound I-5, N2-(3-Aminosulfonyl-4-methylphenyl)-5-fluoro-N4-[4-(prop-2-ynylaminosulfonylmethyl)phenyl]-2,4-pyrimidinediamine] | – | – | 120 nM | 710 nM
CCS(=O)(=O)N[C@@H](C)c1ccc(Nc2nc(Nc3cccc(S(N)(=O)=O)c3)ncc2F)cc1 [Compound I-27, N2-(3-aminosulfonyl)phenyl-N4-[4-(1S-ethylsulfonylamino)ethyl]phenyl-5-fluoro-2,4-pyrimidinediamine] | 144 nM | 1240 nM | – | –
CCNS(=O)(=O)c1cc(Nc2ncc(C)c(Nc3ccc(CNS(=O)(=O)C4CC4)cc3)n2)ccc1C [Compound I-186, N4-(4-cyclopropylsulfonylaminomethyl)phenyl-N2-(3-ethylaminosulfonyl-4-methyl)phenyl-5-methyl-2,4-pyrimidinediamine] | 40 nM | 73 nM | – | –
Cc1ccc(Nc2ncc(C)c(Nc3ccc(CN(C)S(=O)(=O)C4CC4)cc3)n2)cc1S(N)(=O)=O [Compound I-126, N2-(3-aminosulfonyl-4-methyl)phenyl-N4-[4-(N-cyclopropylsulfonyl-N-methyl)aminomethyl]phenyl-5-methyl-2,4-pyrimidinediamine] | 74.2 nM | 224 nM | – | –
Cc1ccc(Nc2ncc(Cl)c(Nc3ccc(CNS(=O)(=O)C4CC4)cc3)n2)cc1S(N)(=O)=O [Compound I-113, N2-(3-aminosulfonyl-4-methyl)phenyl-5-chloro-N4-(4-cyclopropylsulfonylaminomethyl)phenyl-2,4-pyrimidinediamine] | 17 nM | 47.1 nM | – | –
Cc1cnc(Nc2cccc(S(N)(=O)=O)c2)nc1Nc1ccc(CN(C)S(=O)(=O)C2CC2)cc1 [Compound I-121, N2-(3-aminosulfonyl)phenyl-N4-[4-(N-cyclopropylsulfonyl-N-methyl)aminomethyl]phenyl-5-methyl-2,4-pyrimidinediamine] | 46.5 nM | 231 nM | – | –
Cc1cnc(Nc2cccc(S(N)(=O)=O)c2)nc1Nc1cccc(CN(C)S(=O)(=O)C2CC2)c1 [Compound I-120, N2-(3-aminosulfonyl)phenyl-N4-[3-(N-cyclopropylsulfonyl-N-methyl)aminomethyl]phenyl-5-methyl-2,4-pyrimidinediamine] | 47.3 nM | 98.4 nM | – | –
Cc1ccc(Nc2ncc(C)c(Nc3ccc(CNS(=O)(=O)C4CC4)cc3)n2)cc1S(N)(=O)=O [Compound I-47, N2-(3-aminosulfonyl-4-methyl)phenyl-N4-(4-cyclopropylsulfonylaminomethyl)phenyl-5-methyl-2,4-pyrimidinediamine] | 36.2 nM | 104 nM | – | –
Cc1cnc(Nc2cccc(S(=O)(=O)NCC3CC3)c2)nc1Nc1ccc(CNS(=O)(=O)C2CC2)cc1 [Compound I-180, N2-(3-cyclopropylmethylaminosulfonyl)phenyl-N4-(4-cyclopropylsulfonylaminomethyl)phenyl-5-methyl-2,4-pyrimidinediamine] | 148 nM | 62.2 nM | – | –
CNS(=O)(=O)c1cc(Nc2ncc(C)c(Nc3ccc(CNS(=O)(=O)C4CC4)cc3)n2)ccc1C [Compound I-185, N4-(4-cyclopropylsulfonylaminomethyl)phenyl-5-methyl-N2-(4-methyl-3-methylaminosulfonyl)phenyl-2,4-pyrimidinediamine] | 41.1 nM | 85.3 nM | – | –
Cc1ccc(Nc2ncc(C)c(Nc3ccc(CNS(=O)(=O)C(C)C)cc3)n2)cc1S(N)(=O)=O [Compound I-117, N2-(3-aminosulfonyl-4-methyl)phenyl-N4-(4-isopropylsulfonylaminomethyl)phenyl-5-methyl-2,4-pyrimidinediamine] | 17.9 nM | 60.1 nM | – | –
NS(=O)(=O)c1ccc(Nc2ncc(F)c(Nc3ccc(CNS(=O)(=O)C4CCCC4)cc3)n2)cc1 [Compound I-68, N2-(4-aminosulfonyl)phenyl-N4-(4-cyclopentylsulfonylaminomethyl)phenyl-5-fluoro-2,4-pyrimidinediamine] | 102 nM | 289 nM | – | –
NS(=O)(=O)c1cccc(Nc2ncc(F)c(Nc3ccc(CNS(=O)(=O)CC(F)(F)F)cc3)n2)c1 [Compound I-49, N2-(3-aminosulfonyl)phenyl-5-fluoro-N4-(4-trifluoroethylsulfonylaminomethyl)phenyl-2,4-pyrimidinediamine] | 38.3 nM | 836 nM | – | –
C#CCNS(=O)(=O)c1cccc(Nc2ncc(C)c(Nc3ccc(CNS(=O)(=O)C4CC4)cc3)n2)c1 [Compound I-165, N4-(4-cyclopropylsulfonylaminomethyl)phenyl-5-methyl-N2-(3-propargylaminosulfonyl)phenyl-2,4-pyrimidinediamine] | 19.9 nM | 150 nM | – | –
Cc1ccc(Nc2ncc(C)c(Nc3ccc(CNS(=O)(=O)C4CC4)cc3)n2)cc1S(=O)(=O)Nc1ccccc1 [Compound I-202, N4-(4-cyclopropylsulfonylaminomethyl)phenyl-5-methyl-N2-(4-methyl-3-phenylaminosulfonyl)phenyl-2,4-pyrimidinediamine] | 184 nM | 482 nM | – | –
NS(=O)(=O)c1cccc(Nc2ncc(F)c(Nc3ccc(CNS(=O)(=O)C4CCCC4)cc3)n2)c1 [Compound I-69, N2-(3-aminosulfonyl)phenyl-N4-(4-cyclopentylsulfonylaminomethyl)phenyl-5-fluoro-2,4-pyrimidinediamine] | 50 nM | 176 nM | – | –
CCNS(=O)(=O)c1ccc(Nc2ncc(C)c(Nc3ccc(CNS(=O)(=O)C4CC4)cc3)n2)cc1 [Compound I-175, N4-(4-cyclopropylsulfonylaminomethyl)phenyl-N2-(4-ethylaminosulfonyl)phenyl-5-methyl-2,4-pyrimidinediamine] | 102 nM | 72.3 nM | – | –
CCS(=O)(=O)NCc1ccc(Nc2nc(Nc3cccc(S(N)(=O)=O)c3)ncc2C)cc1 [Compound I-21, N2-(3-aminosulfonyl)phenyl-N4-(4-ethylsulfonylaminomethyl)phenyl-5-methyl-2,4-pyrimidinediamine] | 58.9 nM | 362 nM | – | –
CCCNS(=O)(=O)c1cc(Nc2ncc(C)c(Nc3ccc(CNS(=O)(=O)C4CC4)cc3)n2)ccc1C [Compound I-187, N4-(4-cyclopropylsulfonylaminomethyl)phenyl-5-methyl-N2-(4-methyl-3-propylaminosulfonyl)phenyl-2,4-pyrimidinediamine] | 101 nM | 174 nM | – | –
CCS(=O)(=O)NCc1ccc(Nc2nc(Nc3ccc(C)c(S(N)(=O)=O)c3)ncc2F)cc1 [Compound I-10, N2-(3-aminosulfonyl-4-methyl)phenyl-N4-(4-ethylsulfonylaminomethyl)phenyl-5-fluoro-2,4-pyrimidinediamine] | 60.6 nM | 477 nM | – | –
